Our source for the IC50 values is patent US5510371A, “Inhibitors of farnesyl-protein transferase” (Merck & Co., Inc., priority 1994, dated 1996).

The test has as its target T1, human recombinant farnesyl-protein transferase (Homo sapiens, UniProt P49354+P49356).
T1 construct: made in house; host or cells: Escherichia coli
Put plainly: In vitro inhibition of ras farnesyl transferase. As to conditions: 50 nM 3H-FPP, 0.1 μM ras-CVIM, 2 μg human recombinant FPTase, pH 7.5, 30 minutes at 31° C.; read-out: LC50 (nM) (IC50: concentration of the test compound which gives 50% inhibition of FPTase). Type of test: biochemical. How it is done:
In vitro inhibition of ras farnesyl transferase
Human FPTase was expressed in Escherichia coli and then the recombinant protein was purified as described by Omer, et al., Biochemistry 32, 5167 (1993). The assay was performed in a volume of 100 μl containing 100 mM N-(2-hydroxy ethyl) piperazine-N'-(2-ethane sulfonic acid) (HEPES), pH 7.5, 5 mM MgCl2, 5 mM dithiothreitol (DTT), 10 μM ZnCl2, 0.1% (w/v) polyethylene glycol 20,000, 50 nM 3H!-Farnesyl Pyrophosphate ( 3H!-FPP, […], NEN-DuPont), 0.1 μM ras-CVIM and 2 μg of human recombinant farnesyl-protein transferase. The assay was run in the presence of the compound(s) for 30 minutes at 31° C. and then quenched by placing the tubes in an ice bath for 5 minutes. Trichloracetic acid (TCA, 0.1 ml of 30% (v/v) in ethanol followed by 50 μl of 0.25% (w/v) Bovine Serum Albumin in water was added to the tubes, vortexed for 5 minutes then placed in a 37° C. water bath for 30 minutes to facilitate the hydrolysis of the unused farnesyl pyrophosphate. The precipitate was collected on a Packard double thickness filtermat, using a Tomtec Mach II Cell Harvester and washed with 8 ml of 100% Ethanol. The filtermats were dried in a microwave oven and counted in a LKB Betaplate counter. The compounds were dissolved in dimethyl sulfoxide and were diluted 20-fold into the assay.
Inhibition of RAS farnesylation by compounds of this invention* […]

The structures appear in SMILES notation.

T1 sequence (P49356 whole entry, one chain of several): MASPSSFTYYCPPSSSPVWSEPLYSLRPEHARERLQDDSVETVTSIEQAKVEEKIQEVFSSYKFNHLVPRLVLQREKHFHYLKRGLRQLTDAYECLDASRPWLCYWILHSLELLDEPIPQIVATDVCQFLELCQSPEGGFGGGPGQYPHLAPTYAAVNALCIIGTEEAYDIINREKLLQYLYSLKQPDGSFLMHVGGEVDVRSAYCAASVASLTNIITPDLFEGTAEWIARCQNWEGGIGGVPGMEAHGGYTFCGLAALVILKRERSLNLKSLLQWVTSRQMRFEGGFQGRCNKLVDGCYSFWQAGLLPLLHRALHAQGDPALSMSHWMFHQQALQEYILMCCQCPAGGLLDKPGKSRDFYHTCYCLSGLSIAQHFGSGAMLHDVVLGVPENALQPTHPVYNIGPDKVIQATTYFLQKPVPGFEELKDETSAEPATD

Consider `CCC(CC(C)C(=O)O)C(=O)CCC1=CC(C)CC(C)=CC(C)C(O)C(C)CCC(CCCCC=CC(C)CCC(C)OC(=O)CC(CC(=O)O)C(=O)O)OC(=O)CC(C(=O)O)CC(=O)OC1` (stereo not shown) [Compound 1, 1,2,3-propanetricarboxylic acid 1-10-4-carboxy 19-(6-carboxy-4-ethyl-3-oxoheptyl)-12-hydroxy-11,13,15,17-tetramethyl-2,6-dioxo-1,7-dioxacycloeiocosa-14,18-dien-8-yl!-1,4-dimethyl-5-decenyl! ester], for which the IC50 amounted to 230 nM.
